From US20230293526A1, “METHOD FOR TREATING CANCER WITH A REVERSE TRANSCRIPTASE INHIBITOR” (PrimeFour Therapeutics, Inc., priority 2020, published 2023)

Assays:
Assay in all cases: Cell proliferation CellTiterGlo Ex.2
Type in all cases: cell-based
Hep3B2.1-7 = Hep3B2.1-7 (Liver), 72 h
Protocol: (§1) A dose response relationship on cell proliferation was assessed for Compound 13 on 140 tumor cell lines. Briefly, compound treatment of cells started one day after seeding with a final DMSO concentration of 0.100, and was performed by nanodrop-dispensing using a Tecan Dispenser. 0.10% DMSO (solvent) and Staurosporine (10 μM) served as high control (10000 viability) and low control (000 viability), respectively. Compound 13 was tested at 10, 3, 1, 0.3, 0.1, 0.03, 0.01, and 0.003 μM.
(§2) Cells were cultured in the appropriate media. For the assays, cells were seeded in white cell culture-treated flat and clear bottom multiwell plates and incubated at 37° C. overnight before compound was added. After incubation for 72 h at 37° C. at 5% or 10% CO2 dependent on the medium, cell plates were equilibrated to room temperature for one hour, CellTiterGlo reagent (Promega) was added and luminescence was measured approximately an hour later using a luminometer.
(§3) Raw data were converted into percent cell viability relative to the high and low control, which were set to 10000 and 000, respectively.

JIMT-1 = conditions: Homo sapiens; JIMT-1 (Breast), 72 h
Protocol: as §1, §2, §3

Hs 746T = conditions: Homo sapiens, Hs746T; Hs 746T (Stomach), 72 h
Protocol: as §1, §2, §3

MDA MB 231 = conditions: Homo sapiens; MDA MB 231 (Breast), 72 h
Protocol: as §1, §2, §3

U251MG = conditions: Homo sapiens, U-251; U251MG (Brain), 72 h
Protocol: as §1, §2, §3

OV56 = OV56 (Ovary), 72 h
Protocol: as §1, §2, §3

U87MG = conditions: Homo sapiens, U-87 MG; U87MG (Brain), 72 h
Protocol: as §1, §2, §3

H1299 = conditions: Homo sapiens, NCI-H1299; H1299 (Lung), 72 h
Protocol: as §1, §2, §3

OCI-AML5 = conditions: Homo sapiens, OCI-AML-5; OCI-AML5 (Blood), 72 h
Protocol: as §1, §2, §3

Caki-1 = conditions: Homo sapiens; Caki-1 (Kidney), 72 h
Protocol: as §1, §2, §3

BT-20 = conditions: Homo sapiens; BT-20 (Breast), 72 h
Protocol: as §1, §2, §3

KMS-12-BM = conditions: Homo sapiens; KMS-12-BM (Blood), 72 h
Protocol: as §1, §2, §3

NCI-H1437 = conditions: Homo sapiens; NCI-H1437 (Lung), 72 h
Protocol: as §1, §2, §3

NCI-H292 = conditions: Homo sapiens; NCI-H292 (Lung), 72 h
Protocol: as §1, §2, §3

T84 = conditions: Homo sapiens; T84 (Colon), 72 h
Protocol: as §1, §2, §3

COR-L279 = conditions: Homo sapiens; COR-L279 (Lung), 72 h
Protocol: as §1, §2, §3

Jurkat = conditions: Homo sapiens; Jurkat (Blood), 72 h
Protocol: as §1, §2, §3

LnCap = conditions: Homo sapiens; LnCap (Prostate), 72 h
Protocol: as §1, §2, §3

HCC827 = conditions: Homo sapiens; HCC827 (Lung), 72 h
Protocol: as §1, §2, §3

LN229 = conditions: Homo sapiens, LN-229; LN229 (Brain), 72 h
Protocol: as §1, §2, §3

SK-BR-3 = conditions: Homo sapiens; SK-BR-3 (Breast), 72 h
Protocol: as §1, §2, §3

NCI-H838 = conditions: Homo sapiens; NCI-H838 (Lung), 72 h
Protocol: as §1, §2, §3

MV4-11 = conditions: Homo sapiens; MV4-11 (Blood), 72 h
Protocol: as §1, §2, §3

H4 = H4 (Brain), 72 h
Protocol: as §1, §2, §3

H2228 = conditions: Homo sapiens, NCI-H2228; H2228 (Lung), 72 h
Protocol: as §1, §2, §3

SK-ES-1 = conditions: Homo sapiens, SK-ES1; SK-ES-1 (Bone), 72 h
Protocol: as §1, §2, §3

HEC-1-B = conditions: Homo sapiens; HEC-1-B (Endometrium), 72 h
Protocol: as §1, §2, §3

U118MG = conditions: Homo sapiens, U-118-MG; U118MG (Brain), 72 h
Protocol: as §1, §2, §3

Saos-2 EC = conditions: Homo sapiens; Saos-2 EC (Bone), 72 h
Protocol: as §1, §2, §3

JVM-3 = conditions: Homo sapiens; JVM-3 (Blood), 72 h
Protocol: as §1, §2, §3

SU-DHL-5 = conditions: Homo sapiens; SU-DHL-5 (Blood), 72 h
Protocol: as §1, §2, §3

SNU-1 = conditions: Homo sapiens, SNU1; SNU-1 (Stomach), 72 h
Protocol: as §1, §2, §3

ZR-75-1 = conditions: Homo sapiens; ZR-75-1 (Breast), 72 h
Protocol: as §1, §2, §3

Question: Which IC50 (Hep3B2.1-7) does the source give for `C#C[C@]1(CO)O[C@@H](n2cnc3c(=O)[nH]c(N)nc32)C[C@@H]1O` [compound 13] here?
Answer: 0.82 µM

Question: What about the IC50 (JIMT-1) of the same compound?
Answer: 7 µM

Question: And the IC50 (Hs 746T)?
Answer: 5.39 µM

Question: What about the IC50 (MDA MB 231) of the same compound?
Answer: 3.85 µM

Question: And the IC50 (U251MG)?
Answer: > 10 µM

Question: What about the IC50 (OV56) of the same compound?
Answer: 1.99 µM

Question: And the IC50 (U87MG)?
Answer: 6.39 µM

Question: What about the IC50 (H1299) of the same compound?
Answer: 7.68 µM

Question: What about the IC50 (OCI-AML5) of the same compound?
Answer: 1.37 µM

Question: What about the IC50 (Caki-1) of the same compound?
Answer: 9.76 µM

Question: And the IC50 (BT-20)?
Answer: > 10 µM

Question: And the IC50 (KMS-12-BM)?
Answer: 0.96 µM

Question: And the IC50 (NCI-H1437)?
Answer: > 10 µM

Question: And the IC50 (NCI-H292)?
Answer: 8.56 µM

Question: What about the IC50 (T84) of the same compound?
Answer: > 10 µM

Question: What about the IC50 (COR-L279) of the same compound?
Answer: > 10 µM

Question: And the IC50 (Jurkat)?
Answer: 1.17 µM

Question: And the IC50 (LnCap)?
Answer: > 10 µM

Question: What about the IC50 (HCC827) of the same compound?
Answer: 4.47 µM

Question: What about the IC50 (LN229) of the same compound?
Answer: 2.23 µM

Question: And the IC50 (SK-BR-3)?
Answer: > 10 µM

Question: And the IC50 (NCI-H838)?
Answer: > 10 µM

Question: What about the IC50 (MV4-11) of the same compound?
Answer: 0.21 µM

Question: And the IC50 (H4)?
Answer: > 10 µM

Question: What about the IC50 (H2228) of the same compound?
Answer: > 10 µM

Question: What about the IC50 (SK-ES-1) of the same compound?
Answer: 4.99 µM

Question: What about the IC50 (HEC-1-B) of the same compound?
Answer: > 10 µM

Question: What about the IC50 (U118MG) of the same compound?
Answer: 5.74 µM

Question: And the IC50 (Saos-2 EC)?
Answer: 3.99 µM

Question: And the IC50 (JVM-3)?
Answer: 2.45 µM

Question: And the IC50 (SU-DHL-5)?
Answer: 3.74 µM

Question: And the IC50 (SNU-1)?
Answer: 2.89 µM

Question: What about the IC50 (ZR-75-1) of the same compound?
Answer: > 10 µM
